Broadly, the logD is lipophilicity at a set pH, counting ionised and neutral species. As a reminder, the Papp A→B is how fast a substance crosses the layer from the apical side. Usually bioavailability stands for the share of a dose that reaches the circulation, judged against a reference dose that is usually intravenous.

The values below come from ChEMBL document CHEMBL1914442, “Metabolism-directed design of oxetane-containing arylsulfonamide derivatives as γ-secretase inhibitors” (J Med Chem, 2011).

A short description of one data set: physchem. The note with it: octanol/water, pH 7.4.
The nature of data set [1]: Apparent permeability from apical to basolateral side of dog RRCK cells by transwell assay. The settings on record: MDCK. Format: ADME, cell-based, Canis lupus familiaris, MDCKII-LE.
Data set [2] can be described thus: Oral bioavailability in rat. Format: ADME, organism-based. The note with it: in vivo.
Data set [3] can be described thus: Oral bioavailability in mouse. It is filed as ADME, organism-based. The settings on record: in vivo.
The nature of data set [4]: Drug uptake in wild-type mouse 129/sve cerebrospinal fluid at 100 mg/kg, sc administered as a single dose measured 1 hr post-dose by LC-MS analysis. It is filed as ADME, organism-based. Also noted: dose 100 mg/kg, route subcutaneous. The settings on record: read-out: Drug uptake.
Data set [5] in a line: Drug uptake in wild-type mouse 129/sve cerebrospinal fluid at 100 mg/kg, sc administered as a single dose measured 4 hr post-dose by LC-MS analysis. It is filed as ADME, organism-based. Also on record: dose 100 mg/kg, route subcutaneous. The note with it: read-out: Drug uptake.

For the molecule `NC(=O)[C@@H](CCC(F)(F)F)N(C[C@H]1CCO1)S(=O)(=O)c1ccc(Cl)cc1`, in “physchem”, the logD came out at 2.6. For the same molecule, the apparent permeability from apical to basolateral (Papp A→B) in data set [1] amounted to 287 nm/s.

Regarding `C[C@H]1C[C@@H](CN([C@H](CCC(F)(F)F)C(N)=O)S(=O)(=O)c2ccc(Cl)cc2)O1`, in data set [1], the apical-to-basolateral permeability (Papp A→B) worked out at 218 nm/s.

`NC(=O)[C@@H](CCC(F)(F)F)N(CC1CCOCC1)S(=O)(=O)c1ccc(Cl)cc1`: the pH-dependent lipophilicity (logD) in the data set “physchem” is 3.5. In data set [1], the apical-to-basolateral permeability (Papp A→B) came out at 263 nm/s.

Regarding `C[C@@H]1C[C@@H](CN([C@H](CCC(F)(F)F)C(N)=O)S(=O)(=O)c2ccc(Cl)cc2)O1`, the Papp A→B in data set [1] was found to be 212 nm/s.

`NC(=O)[C@@H](CCC(F)(F)F)N(CC1COC1)S(=O)(=O)c1ccc(Cl)cc1` had a logD in the data set “physchem” of 2.5. Moreover, the bioavailability in data set [2] and in data set [3] was less than 5% each time. Also, the Papp A→B in data set [1] was determined as 254 nm/s.

`CC1(C)C[C@@H](CN([C@H](CCC(F)(F)F)C(N)=O)S(=O)(=O)c2ccc(Cl)cc2)O1` had a logD in the data set “physchem” of 3.8. Further, the bioavailability in data set [2] and in data set [3] was less than 5% in each case. Besides, in data set [1], the Papp A→B amounted to 149 nm/s.

Take `NC(=O)[C@@H](CCC(F)(F)F)N(C[C@@H]1CCCCO1)S(=O)(=O)c1ccc(Cl)cc1`: in “physchem”, the logD turned out to be 4.3. The apical-to-basolateral permeability (Papp A→B) in data set [1] is 154 nm/s.

In the case of `CC1(C)CO[C@H]1CN([C@H](CCC(F)(F)F)C(N)=O)S(=O)(=O)c1ccc(Cl)cc1`, the logD in “physchem” is 3.8. The Papp A→B in data set [1] turned out to be 264 nm/s.

`NC(=O)[C@@H](CCC(F)(F)F)N(C[C@@H]1CCCO1)S(=O)(=O)c1ccc(Cl)cc1` displayed a logD in “physchem” of 3.5. Moreover, the Papp A→B in data set [1] is 224 nm/s.

As for `NC(=O)[C@@H](CCC(F)(F)F)N(CC1CCCCC1)S(=O)(=O)c1ccc(Cl)cc1`, the Papp A→B in data set [1] came to 44.2 nm/s.

In “physchem”, `NC(=O)[C@@H](CCC(F)(F)F)N(C[C@H]1CCCOC1)S(=O)(=O)c1ccc(Cl)cc1` had a logD of 3.6. The Papp A→B in data set [1] is 182 nm/s.

In “physchem”, `NC(=O)[C@@H](CCC(F)(F)F)N(C[C@H]1COCCO1)S(=O)(=O)c1ccc(Cl)cc1` displayed a logD of 2.75. In addition, the apparent permeability from apical to basolateral (Papp A→B) in data set [1] was found to be 206 nm/s.

Molecule `CC1(C)C[C@H](CN([C@H](CCC(F)(F)F)C(N)=O)S(=O)(=O)c2ccc(Cl)cc2)O1` came in with a logD in the data set “physchem” of 3.8. Besides, in data set [1], the Papp A→B came to 181 nm/s.

On to `NC(=O)[C@@H](CCC(F)(F)F)N(C[C@H]1CCOC1)S(=O)(=O)c1ccc(Cl)cc1`, for which, in “physchem”, the logD is 2.8. Further, the Papp A→B in data set [1] turned out to be 217 nm/s.

In “physchem”, `NC(=O)[C@@H](CCC(F)(F)F)N(C[C@H]1CCCO1)S(=O)(=O)c1ccc(Cl)cc1` gave a logD of 3.6. The Papp A→B in data set [1] came out at 191 nm/s.

For `NC(=O)[C@@H](CCC(F)(F)F)N(C[C@@H]1CCO1)S(=O)(=O)c1ccc(Cl)cc1`, the log distribution coefficient (logD) in the data set “physchem” was 2.6. In addition, the bioavailability in data set [2] and in data set [3] was less than 5% in each case. In data set [1], the apical-to-basolateral permeability (Papp A→B) amounted to 349 nm/s. Moreover, in data set [4], the concentration at 1 h was 0.447 µM. For the same molecule, the concentration at 4 h in data set [5] came to 0.0596 µM.

Regarding `NC(=O)[C@@H](CCC(F)(F)F)N(C[C@H]1CCCCO1)S(=O)(=O)c1ccc(Cl)cc1`, the logD in “physchem” stood at 4.3. Besides, in data set [1], the Papp A→B worked out at 134 nm/s.

Take `NC(=O)[C@@H](CCC(F)(F)F)N(C[C@@H]1COCCO1)S(=O)(=O)c1ccc(Cl)cc1`: the log distribution coefficient (logD) in “physchem” was 2.75. Moreover, the Papp A→B in data set [1] amounted to 273 nm/s.

With `NC(=O)[C@@H](CCC(F)(F)F)N(CC1CCCC1)S(=O)(=O)c1ccc(Cl)cc1`, in the data set “physchem”, the logD was 5.15. In addition, in data set [1], the Papp A→B amounted to 60.1 nm/s.

Regarding `NC(=O)[C@@H](CCC(F)(F)F)N(C[C@@H]1CCOC1)S(=O)(=O)c1ccc(Cl)cc1`, the logD in “physchem” amounted to 2.8. Further, the Papp A→B in data set [1] amounted to 205 nm/s.

Turning to `CC1(C)CO[C@@H]1CN([C@H](CCC(F)(F)F)C(N)=O)S(=O)(=O)c1ccc(Cl)cc1`, the pH-dependent lipophilicity (logD) in the data set “physchem” was 3.9. Moreover, the apical-to-basolateral permeability (Papp A→B) in data set [1] is 223 nm/s.

As for `NC(=O)[C@@H](CCC(F)(F)F)N(C[C@@H]1CCCOC1)S(=O)(=O)c1ccc(Cl)cc1`, the logD in the data set “physchem” was determined as 3.7. Further, in data set [1], the Papp A→B worked out at 184 nm/s.

For `NC(=O)[C@@H](CCC(F)(F)F)N(CC1CCC1)S(=O)(=O)c1ccc(Cl)cc1`, in data set [1], the apparent permeability from apical to basolateral (Papp A→B) was determined as 111 nm/s.
